Measured values published in article PMC5218480 (PLoS ONE, 2017).

Test system: MV-4-11 cells
Assay: Gene expression microarray analysis (Affymetrix PrimeView) and GSEA
Assay type: cell-based, human
Design: RFU PODN (11730768_x_at) / Fold change /veh PODN (11730768_x_at) / RFU LINC00158 (11744669_a_at) / Fold change /veh LINC00158 (11744669_a_at) / RFU DUSP10 (11751237_a_at) / Fold change /veh DUSP10 (11751237_a_at) / RFU ID3 (11757404_x_at) / Fold change /veh ID3 (11757404_x_at) / RFU PLEKHG5 (11737974_s_at) / Fold change /veh PLEKHG5 (11737974_s_at) / RFU LRRC4B (11730491_at) / Fold change /veh LRRC4B (11730491_at) / RFU GIMAP4 (11747438_a_at) / Fold change /veh GIMAP4 (11747438_a_at) / RFU KRT8 (11758183_x_at) / Fold change /veh KRT8 (11758183_x_at) / RFU CNN1 (11734310_a_at) / Fold change /veh CNN1 (11734310_a_at) / RFU VPS37D (11726825_at) / Fold change /veh VPS37D (11726825_at) / RFU C10orf10 (11716522_x_at) / Fold change /veh C10orf10 (11716522_x_at) / RFU KIR2DL2 /// KIR2DL4 /// KIR2DL5A /// KIR2DL5B /// KIR2DS1 /// KIR2DS2 /// KIR2DS3 /// KIR2DS4 /// KIR3DL3 /// KIR3DL3 /// KIR3DS1 (11738374_at) / Fold change /veh KIR2DL2 /// KIR2DL4 /// KIR2DL5A /// KIR2DL5B /// KIR2DS1 /// KIR2DS2 /// KIR2DS3 /// KIR2DS4 /// KIR3DL3 /// KIR3DL3 /// KIR3DS1 (11738374_at) / RFU C1QL1 (11718748_at) / Fold change /veh C1QL1 (11718748_at) / RFU TMPRSS4 (11747572_a_at) / Fold change /veh TMPRSS4 (11747572_a_at) / RFU HAMP (11756126_x_at) / Fold change /veh HAMP (11756126_x_at) / RFU RNFT2 (11725882_a_at) / Fold change /veh RNFT2 (11725882_a_at) / RFU NR4A2 (11747474_a_at) / Fold change /veh NR4A2 (11747474_a_at) / RFU ABCC12 (11746883_a_at) / Fold change /veh ABCC12 (11746883_a_at) / RFU TMEM136 (11760407_x_at) / Fold change /veh TMEM136 (11760407_x_at) / RFU CLDN22 /// WWC2 (11732394_at) / Fold change /veh CLDN22 /// WWC2 (11732394_at) / RFU HLA-DPB1 (11760878_x_at) / Fold change /veh HLA-DPB1 (11760878_x_at) / RFU SPINT1 (11716480_a_at) / Fold change /veh SPINT1 (11716480_a_at) / RFU GAP43 (11754022_s_at) / Fold change /veh GAP43 (11754022_s_at) / RFU A4GNT (11735810_at) / Fold change /veh A4GNT (11735810_at) / RFU PRB3 (11715151_x_at) / Fold change /veh PRB3 (11715151_x_at) / RFU TUBB4B (11761932_at) / Fold change /veh TUBB4B (11761932_at) / RFU CAPN14 (11732068_a_at) / Fold change /veh CAPN14 (11732068_a_at) / RFU TMCC2 (11721928_a_at) / Fold change /veh TMCC2 (11721928_a_at) / RFU IRGQ (11745062_a_at) / Fold change /veh IRGQ (11745062_a_at) / RFU FAM174B (11720279_a_at) / Fold change /veh FAM174B (11720279_a_at) / RFU TMPRSS4 (11748680_a_at) / Fold change /veh TMPRSS4 (11748680_a_at) / RFU FAM212B (11763350_a_at) / Fold change /veh FAM212B (11763350_a_at) / RFU PLEKHG5 (11743358_a_at) / Fold change /veh PLEKHG5 (11743358_a_at) / RFU ZSCAN30 (11745921_a_at) / Fold change /veh ZSCAN30 (11745921_a_at) / RFU CMKLR1 (11741424_a_at) / Fold change /veh CMKLR1 (11741424_a_at) / RFU LOC101060620 /// MAPK8IP1 (11723275_at) / Fold change /veh LOC101060620 /// MAPK8IP1 (11723275_at) / RFU SPTSSB (11747773_x_at) / Fold change /veh SPTSSB (11747773_x_at) / RFU PRSS12 (11739890_at) / Fold change /veh PRSS12 (11739890_at) / RFU BIN1 (11741810_x_at) / Fold change /veh BIN1 (11741810_x_at) / RFU WNT11 (11732464_a_at) / Fold change /veh WNT11 (11732464_a_at) / RFU C10orf10 (11716521_a_at) / Fold change /veh C10orf10 (11716521_a_at) / RFU C5orf56 (11738089_at) / Fold change /veh C5orf56 (11738089_at) / RFU CYB561 (11721691_x_at) / Fold change /veh CYB561 (11721691_x_at) / RFU ANKRD19P (11752326_a_at) / Fold change /veh ANKRD19P (11752326_a_at) / RFU OR2T12 /// OR2T33 /// OR2T8 (11738714_s_at) / Fold change /veh OR2T12 /// OR2T33 /// OR2T8 (11738714_s_at) / RFU VCAN (11748164_a_at) / Fold change /veh VCAN (11748164_a_at) / RFU JSRP1 (11732532_at) / Fold change /veh JSRP1 (11732532_at) / RFU KRTAP10-11 (11738290_x_at) / Fold change /veh KRTAP10-11 (11738290_x_at) / RFU MYO3A (11730013_a_at) / Fold change /veh MYO3A (11730013_a_at) / RFU EBF3 (11725865_a_at) / Fold change /veh EBF3 (11725865_a_at) / RFU CAMK2N1 (11719241_x_at) / Fold change /veh CAMK2N1 (11719241_x_at) / RFU C5orf56 (11738088_a_at) / Fold change /veh C5orf56 (11738088_a_at) / RFU OLFML3 (11715873_a_at) / Fold change /veh OLFML3 (11715873_a_at) / RFU LOC100653217 /// NTM (11731650_a_at) / Fold change /veh LOC100653217 /// NTM (11731650_a_at) / RFU MAPK11 (11762145_a_at) / Fold change /veh MAPK11 (11762145_a_at) / RFU FIZ1 (11724087_x_at) / Fold change /veh FIZ1 (11724087_x_at) / RFU OASL (11726364_x_at) / Fold change /veh OASL (11726364_x_at) / RFU SOX15 (11748057_x_at) / Fold change /veh SOX15 (11748057_x_at) / RFU CD79A (11719716_a_at) / Fold change /veh CD79A (11719716_a_at) / RFU HIST1H1D (11736915_at) / Fold change /veh HIST1H1D (11736915_at) / RFU CASKIN2 (11723855_a_at) / Fold change /veh CASKIN2 (11723855_a_at) / RFU LOC730098 (11760151_x_at) / Fold change /veh LOC730098 (11760151_x_at) / RFU OR4N2 (11742367_at) / Fold change /veh OR4N2 (11742367_at) / RFU PRRT2 (11749266_a_at) / Fold change /veh PRRT2 (11749266_a_at) / RFU SNX32 (11753110_a_at) / Fold change /veh SNX32 (11753110_a_at) / RFU CDHR5 (11726645_a_at) / Fold change /veh CDHR5 (11726645_a_at) / RFU RCAN1 (11760418_a_at) / Fold change /veh RCAN1 (11760418_a_at) / RFU FAM167A (11723789_a_at) / Fold change /veh FAM167A (11723789_a_at) / RFU FAM26E (11764081_at) / Fold change /veh FAM26E (11764081_at) / RFU ISYNA1 (11749810_s_at) / Fold change /veh ISYNA1 (11749810_s_at) / RFU ACY1 (11761880_at) / Fold change /veh ACY1 (11761880_at) / RFU 11764098_at / Fold change /veh 11764098_at / RFU SAMD14 (11745864_x_at) / Fold change /veh SAMD14 (11745864_x_at) / RFU NPB (11741838_a_at) / Fold change /veh NPB (11741838_a_at) / RFU TMPRSS6 (11731388_a_at) / Fold change /veh TMPRSS6 (11731388_a_at) / RFU KRTAP10-2 (11738614_at) / Fold change /veh KRTAP10-2 (11738614_at) / RFU ARHGAP8 /// PRR5-ARHGAP8 (11727945_x_at) / Fold change /veh ARHGAP8 /// PRR5-ARHGAP8 (11727945_x_at) / RFU KRTAP5-7 /// NADSYN1 (11734609_at) / Fold change /veh KRTAP5-7 /// NADSYN1 (11734609_at) / RFU RASL12 (11751679_a_at) / Fold change /veh RASL12 (11751679_a_at) / RFU CDKN2B (11736163_a_at) / Fold change /veh CDKN2B (11736163_a_at) / RFU PRF1 (11729649_at) / Fold change /veh PRF1 (11729649_at) / RFU, ZNF638 /// ZNF638-IT1 / Fold change vs veh, ZNF638 /// ZNF638-IT1 / RFU, PANK3 / Fold change vs veh, PANK3 / RFU, SH3YL1 / Fold change vs veh, SH3YL1 / RFU, ZEB2 / Fold change vs veh, ZEB2 / RFU, NRIP1 / Fold change vs veh, NRIP1 / RFU, PTTG1IP / Fold change vs veh, PTTG1IP / RFU, CAPN2 / Fold change vs veh, CAPN2 / RFU, MED14 / Fold change vs veh, MED14 / RFU, SNORA58 / Fold change vs veh, SNORA58 / RFU, C1orf63 / Fold change vs veh, C1orf63 / RFU, LRRFIP1 / Fold change vs veh, LRRFIP1 / RFU, NDUFAF7 / Fold change vs veh, NDUFAF7 / RFU, SLC12A2 / Fold change vs veh, SLC12A2 / RFU, IBTK / Fold change vs veh, IBTK / RFU, ESF1 / Fold change vs veh, ESF1 / Fold change vs veh, TMEM50B / RFU, TAOK1 / Fold change vs veh, TAOK1 / RFU, ACBD3 / Fold change vs veh, ACBD3 / RFU, TMA16 / Fold change vs veh, TMA16 / RFU, RWDD3 / Fold change vs veh, RWDD3 / RFU, BCAT1 / Fold change vs veh, BCAT1 / RFU, EDEM3 / Fold change vs veh, EDEM3 / RFU, TMEM33 / Fold change vs veh, TMEM33 / RFU, WDR75 / Fold change vs veh, WDR75 / RFU, AHCTF1 / Fold change vs veh, AHCTF1 / RFU, TFRC / Fold change vs veh, TFRC / RFU, ZDHHC17 / Fold change vs veh, ZDHHC17 / RFU, NOM1 / Fold change vs veh, NOM1 / RFU, ARL8B / Fold change vs veh, ARL8B / RFU, ZBTB11 / Fold change vs veh, ZBTB11 / RFU, TAMM41 / Fold change vs veh, TAMM41 / RFU, KIAA1704 /// LOC100996395 / Fold change vs veh, KIAA1704 /// LOC100996395 / RFU, ING1 / Fold change vs veh, ING1 / RFU, TRMT61B / Fold change vs veh, TRMT61B / RFU, FUBP3 / Fold change vs veh, FUBP3 / RFU, TP53 / Fold change vs veh, TP53 / RFU, TNKS2 / Fold change vs veh, TNKS2 / RFU, ZFP14 / Fold change vs veh, ZFP14 / RFU, ACTR2 / Fold change vs veh, ACTR2 / RFU, PPP3R1 / Fold change vs veh, PPP3R1 / RFU, PIK3R1 / Fold change vs veh, PIK3R1 / RFU, HNRNPA1 / Fold change vs veh, HNRNPA1 / RFU, RNF170 / Fold change vs veh, RNF170 / RFU, ZNF28 / Fold change vs veh, ZNF28 / RFU, RNGTT / Fold change vs veh, RNGTT / RFU, OGT / Fold change vs veh, OGT / RFU, BRD1 / Fold change vs veh, BRD1 / RFU, MARS / Fold change vs veh, MARS / RFU, ZNF655 / Fold change vs veh, ZNF655 / RFU, FAHD1 / Fold change vs veh, FAHD1 / RFU, BDP1 / Fold change vs veh, BDP1 / RFU, LRRCC1 / Fold change vs veh, LRRCC1 / RFU, ARID1A / Fold change vs veh, ARID1A / RFU, ZNF146 / Fold change vs veh, ZNF146 / RFU, ZNF330 / Fold change vs veh, ZNF330 / RFU, GPN3 / Fold change vs veh, GPN3 / RFU, C9orf123 / Fold change vs veh, C9orf123 / RFU, N4BP2L2 / Fold change vs veh, N4BP2L2 / RFU, ARFIP1 / Fold change vs veh, ARFIP1 / RFU, FAM179B / Fold change vs veh, FAM179B / RFU, BCL10 / Fold change vs veh, BCL10 / RFU, UHRF1BP1L / Fold change vs veh, UHRF1BP1L / RFU, BET1 / Fold change vs veh, BET1 / RFU, CNOT2 / Fold change vs veh, CNOT2 / RFU, ZNF268 / Fold change vs veh, ZNF268 / Fold change vs veh, ZNF507 / RFU, DGCR2 / Fold change vs veh, DGCR2 / RFU, WDSUB1 / Fold change vs veh, WDSUB1 / Fold change vs veh, HSP90B1 /// MIR3652 / RFU, ADSS / Fold change vs veh, ADSS / RFU, GK / Fold change vs veh, GK / RFU, ZNF148 / Fold change vs veh, ZNF148 / RFU, TAF9 / Fold change vs veh, TAF9 / RFU, SLC1A5 / Fold change vs veh, SLC1A5 / RFU, SLMO2 / Fold change vs veh, SLMO2 / RFU, ABCC4 / Fold change vs veh, ABCC4 / RFU, LOC101060439 /// RAP1B / Fold change vs veh, LOC101060439 /// RAP1B / RFU, RFX7 / Fold change vs veh, RFX7 / RFU, GTPBP10 / Fold change vs veh, GTPBP10 / RFU, CNEP1R1 / Fold change vs veh, CNEP1R1 / RFU, BIVM-ERCC5 /// ERCC5 / Fold change vs veh, BIVM-ERCC5 /// ERCC5 / RFU, ILF3 / Fold change vs veh, ILF3 / RFU 11762660_at / Fold change /veh 11762660_at / RFU VCAN (11757783_s_at) / Fold change /veh VCAN (11757783_s_at) / RFU DDX43 (11728927_at) / Fold change /veh DDX43 (11728927_at) / RFU KRT8 (11758188_x_at) / Fold change /veh KRT8 (11758188_x_at) / RFU NKD1 (11759106_at) / Fold change /veh NKD1 (11759106_at) / RFU SRD5A1 (11742802_a_at) / Fold change /veh SRD5A1 (11742802_a_at) / RFU TPSAB1 /// TPSB2 (11721975_s_at) / Fold change /veh TPSAB1 /// TPSB2 (11721975_s_at) / RFU GSTM3 (11746129_a_at) / Fold change /veh GSTM3 (11746129_a_at) / RFU IL23R (11737362_x_at) / Fold change /veh IL23R (11737362_x_at) / RFU TMEM51 (11727254_a_at) / Fold change /veh TMEM51 (11727254_a_at) / RFU PIWIL2 (11732686_x_at) / Fold change /veh PIWIL2 (11732686_x_at) / RFU ORM1 (11744905_x_at) / Fold change /veh ORM1 (11744905_x_at) / RFU CCDC152 (11743942_at) / Fold change /veh CCDC152 (11743942_at) / RFU ECM1 (11717891_a_at) / Fold change /veh ECM1 (11717891_a_at) / RFU IL23R (11748794_a_at) / Fold change /veh IL23R (11748794_a_at) / RFU TNFAIP8L3 (11732012_x_at) / Fold change /veh TNFAIP8L3 (11732012_x_at) / RFU MBOAT4 (11741988_at) / Fold change /veh MBOAT4 (11741988_at) / RFU 11764193_at / Fold change /veh 11764193_at / RFU TMEM53 (11763286_at) / Fold change /veh TMEM53 (11763286_at) / RFU MAGEB2 (11727129_at) / Fold change /veh MAGEB2 (11727129_at) / RFU TMEM200A (11744735_a_at) / Fold change /veh TMEM200A (11744735_a_at) / RFU CCDC152 (11751479_a_at) / Fold change /veh CCDC152 (11751479_a_at) / RFU FAM211A (11726209_a_at) / Fold change /veh FAM211A (11726209_a_at) / RFU RGS16 (11746705_a_at) / Fold change /veh RGS16 (11746705_a_at) / RFU VCAN (11755009_s_at) / Fold change /veh VCAN (11755009_s_at) / RFU RHOB (11743442_s_at) / Fold change /veh RHOB (11743442_s_at) / RFU RGS16 (11720943_a_at) / Fold change /veh RGS16 (11720943_a_at) / RFU RGS16 (11720944_at) / Fold change /veh RGS16 (11720944_at) / RFU, VPS4B / Fold change vs veh, VPS4B / RFU, CREB1 / Fold change vs veh, CREB1 / RFU, DNAJC13 / Fold change vs veh, DNAJC13 / RFU, GNAQ / Fold change vs veh, GNAQ / RFU, CDK5R1 / Fold change vs veh, CDK5R1 / RFU, ZRANB3 / Fold change vs veh, ZRANB3 / RFU, CUL4A / Fold change vs veh, CUL4A / RFU, CCNY / Fold change vs veh, CCNY / RFU, UFL1 / Fold change vs veh, UFL1 / RFU, COG3 / Fold change vs veh, COG3 / RFU, DIAPH2 / Fold change vs veh, DIAPH2 / RFU, SKA2 / Fold change vs veh, SKA2 / RFU, AFF3 / Fold change vs veh, AFF3 / RFU, LMF1 / Fold change vs veh, LMF1 / RFU, IPO11 / Fold change vs veh, IPO11 / RFU, DFFB / Fold change vs veh, DFFB / RFU, FOXP1 / Fold change vs veh, FOXP1 / RFU, CARD8 / Fold change vs veh, CARD8 / RFU, STRN3 / Fold change vs veh, STRN3 / RFU, ADK / Fold change vs veh, ADK / RFU, RASSF2 / Fold change vs veh, RASSF2 / RFU, WIPF1 / Fold change vs veh, WIPF1 / RFU, LARP1B / Fold change vs veh, LARP1B / RFU, RASA1 / Fold change vs veh, RASA1 / RFU, RB1 / Fold change vs veh, RB1 / RFU, PPFIA1 / Fold change vs veh, PPFIA1 / RFU, MAT2A / Fold change vs veh, MAT2A / RFU, CCT5 / Fold change vs veh, CCT5 / RFU, WDR92 / Fold change vs veh, WDR92 / RFU, CUX1 / Fold change vs veh, CUX1 / RFU, TTC7A / Fold change vs veh, TTC7A / RFU, TMEM135 / Fold change vs veh, TMEM135 / RFU, DEPTOR / Fold change vs veh, DEPTOR / RFU, CPM / Fold change vs veh, CPM / RFU, DNAJB6 / Fold change vs veh, DNAJB6 / RFU, CACNA2D3 / Fold change vs veh, CACNA2D3 / RFU, DTX4 / Fold change vs veh, DTX4 / RFU, TFCP2 / Fold change vs veh, TFCP2 / RFU, GMCL1 /// GMCL1P1 / Fold change vs veh, GMCL1 /// GMCL1P1 / RFU, AEBP2 / Fold change vs veh, AEBP2 / RFU, SNHG1 /// SNORD22 /// SNORD25 /// SNORD26 /// SNORD27 /// SNORD28 /// SNORD29 /// SNORD31 / Fold change vs veh, SNHG1 /// SNORD22 /// SNORD25 /// SNORD26 /// SNORD27 /// SNORD28 /// SNORD29 /// SNORD31 / Fold change (Aza/veh), C12orf56 (ProbeSet 11735607_a_at) / Fold change (ACY-1035/veh), C12orf56 (ProbeSet 11735607_a_at) / Fold change (Aza/veh), FGFR1OP (ProbeSet 11751329_s_at) / Fold change (ACY-1035/veh), FGFR1OP (ProbeSet 11751329_s_at) / Fold change (Aza/veh), VPS36 (ProbeSet 11739960_a_at) / Fold change (ACY-1035/veh), VPS36 (ProbeSet 11739960_a_at) / RFU SYPL1 (11715823_x_at) / Fold change /veh SYPL1 (11715823_x_at) / RFU IGFBP7 (11715501_s_at) / Fold change /veh IGFBP7 (11715501_s_at) / RFU REEP3 (11722064_at) / Fold change /veh REEP3 (11722064_at) / RFU IGLL1 (11728026_x_at) / Fold change /veh IGLL1 (11728026_x_at): dose or concentration left out as unconfirmed
Conditions: ProbeSet 11731093_s_at; LIST B

## Nc1ccc(-c2cccs2)cc1NC(=O)c1ccc2c(c1)cc(C1CC1)n2CCN1CCOCC1 [ACY-1035]
  RFU, BRD1: 190.44 RFU
